We go through six compounds from patent publication US10780074B2, “Compounds and uses thereof” (Sunovion Pharmaceuticals Inc., priority 2017, dated 2020).

Counter-ions that a name gives are not always drawn. Like-named read-outs stand apart in the source and are kept apart here.

Test [1] relates to behaviors of compound-treated mice. Nature of the test: Neuropharmacological Assay (SmartCube). The format is in vivo. To be noted: for minimal effective dose: Mus musculus, ip, 0.25 h, dose having 50% or more total activity in SmartCube, read-out: MED (minimal effective dose). In short, it runs like this: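 Mice dosed i.p. 15 min before testing, with compound in N-methyl-2-pyrrolidone/PEG/propylene glycol, were video-recorded and algorithmically compared with reference-drug behavioral signatures. This gave class-match probabilities (antidepressant, anxiolytic, etc.) at the most efficacious of 3 doses. MED was defined as the dose with ≥50% total activity, usually tested across 0.3–30 mpk.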

A further test deals with MES-induced seizures. Description: Mouse Maximum Electroshock Assay (MES). Format: in vivo. As to conditions: male CF-1 mice, fewer than 4 animals tested, given as N/F. The source says: Mouse Maximum Electroshock Assay (MES)
Mouse Maximum Electroshock Assay (MES) is a model for generalized tonic-clonic seizures and provides an indication of a compound's ability to prevent seizure spread when all neuronal circuits in the brain are maximally active. These seizures are highly reproducible and are electrophysiologically consistent with human seizures. For all MES tests, 60 Hz of alternating current (50 mA in mice and 150 mA in rats) was delivered for 0.2 sec by corneal electrodes which had been primed with an electrolyte solution containing an anesthetic agent (0.5% tetracaine HCl). An animal was considered “protected” from MES-induced seizures upon abolition of the hindlimb tonic extensor component of the seizure. Initial screen for anticonvulsant activity in the MES was performed with N=4 male CF-1 mice/dose/time point. The default doses and time-points were 3 and 30 mg/kg at 0.25 and 0.5 hr following administration. Quantification of the ED50 was conducted at the time of peak effect (TPE). To determine the TPE, groups of N=4 mice were treated with the investigational compound at 0.25, 0.5, 1.0, 2.0 and 4.0 hrs prior to MES testing, or based on time-points from prior studies. […] Quantitation of the ED50 was conducted the same as described for mice above.

Where [2] appears, read: i.p. 15 min before behavioral test, most efficacious dose(s) of 3 doses.
Where [3] appears, read: SmartCube, i.p. 15 min before test, most efficacious dose(s).

`CNC[C@H]1OCCc2c(-c3cnccn3)cccc21` (single isomer, unassigned) [Compound 81]: in test [1] (i.p.), the minimal effective dose was not above 3 mg/kg. Also, in test [1] (setting [2]), the “AD: ADHD (probability that activity matches class)” value (“AD: ADHD” for short) is reported as “++ (5% ≤ ++ <25%)”, the “AG: analgesic (probability that activity matches class)” value (“AG: analgesic” below) is “+ (LOQ ≤ + <5%)”, the “AX: anxiolytic (probability that activity matches class)” value (“AX: anxiolytic” below) is “++ (5% ≤ ++ <25%)” and the “CE: cognitive enhancer (probability that activity matches class)” value (“CE: cognitive enhancer” for short) is on record as “+ (LOQ ≤ + <5%)”. Further, in test [1] (setting [2]), the “DP: anti-depressant (probability that activity matches class)” value (from here on “DP: anti-depressant”) is listed as “++++ (50% ≤ ++++)”, the “MS: mood stabilizer (probability that activity matches class)” value (shortened to “MS: mood stabilizer”) is given as “+ (LOQ ≤ + <5%)”, the “PS: anti-psychotic (probability that activity matches class)” value (“PS: anti-psychotic” below) was “+ (LOQ ≤ + <5%)” and the “SD: sedative hypnotic (probability that activity matches class)” value (“SD: sedative hypnotic” for short) is recorded as “+ (LOQ ≤ + <5%)”. In test [1] (setting [2]), the “UN: uncharacterized CNS activity (probability that activity matches class)” value (“UN: uncharacterized CNS activity” for short) is “+++ (25% ≤ +++ <50%)”. The “Seizure protection at 30 mg/kg (animals protected/animals tested)” value in the test with MES-induced seizures was 3/3 animals tested.

In the case of `CNC[C@@H]1OCCc2c(-c3cnco3)cccc21` (single isomer, unassigned) [Compound 96, hydrochloride salt], the minimal effective dose in test [1] (i.p.) is not above 3 mg/kg. Besides, in test [1] (setting [2]), the “AD: ADHD” value is given as “++ (5% ≤ ++ <25%)”, the “AG: analgesic” value is listed as “+ (LOQ ≤ + <5%)”, the “AX: anxiolytic” value is “+++ (25% ≤ +++ <50%)” and the “CE: cognitive enhancer” value is “+ (LOQ ≤ + <5%)”. Besides, in test [1] (setting [2]), the “DP: anti-depressant” value was “++++ (50% ≤ ++++)”, the “MS: mood stabilizer” value is given as “+ (LOQ ≤ + <5%)”, the “PS: anti-psychotic” value is reported as “+ (LOQ ≤ + <5%)” and the “SD: sedative hypnotic” value is reported as “++++ (50% ≤ ++++)”. For the same compound, in test [1] (setting [2]), the “UN: uncharacterized CNS activity” value is on record as “+ (LOQ ≤ + <5%)”. In the test on MES-induced seizures, the “Seizure protection at 30 mg/kg (animals protected/animals tested)” value is 2/2 animals tested.

In the case of `CNC[C@H]1OCCc2c1cccc2-n1cccn1` [Compound 187, (S)-1-(5-(1H-pyrazol-1-yl)isochroman-1-yl)-N-methylmethanamine], the minimal effective dose in test [1] lay within 3 to 10 mg/kg. In test [1] (setting [3]), the “AD: ADHD” value is given as “++ (5% ≤ ++ <25%)”, the “AG: analgesic” value is on record as “+ (LOQ ≤ + <5%)”, the “AX: anxiolytic” value is listed as “+ (LOQ ≤ + <5%)” and the “CE: cognitive enhancer” value is “+ (LOQ ≤ + <5%)”. Moreover, in test [1] (setting [3]), the “DP: anti-depressant” value is recorded as “++++ (50% ≤ ++++)”, the “MS: mood stabilizer” value is given as “+ (LOQ ≤ + <5%)”, the “PS: anti-psychotic” value is listed as “+ (LOQ ≤ + <5%)” and the “SD: sedative hypnotic” value is “+ (LOQ ≤ + <5%)”. Also, in test [1] (setting [3]), the “UN: uncharacterized CNS activity” value is “+ (LOQ ≤ + <5%)”.

As to `NCC1OCCc2c(-c3cncs3)cccc21` (centres unmarked) [Compound 59, (5-(Thiazol-5-yl)isochroman-1-yl)methanamine hydrochloride salt], the minimal effective dose in test [1] (i.p.) was not above 3 mg/kg. For the same compound, in test [1] (setting [2]), the “AD: ADHD” value was “++ (5% ≤ ++ <25%)”, the “AG: analgesic” value is given as “++ (5% ≤ ++ <25%)”, the “AX: anxiolytic” value is “++ (5% ≤ ++ <25%)” and the “CE: cognitive enhancer” value was “+ (LOQ ≤ + <5%)”. In test [1] (setting [2]), the “DP: anti-depressant” value is “++++ (50% ≤ ++++)”, the “MS: mood stabilizer” value is “+ (LOQ ≤ + <5%)”, the “PS: anti-psychotic” value is reported as “+ (LOQ ≤ + <5%)” and the “SD: sedative hypnotic” value is given as “+++ (25% ≤ +++ <50%)”. In addition, the “UN: uncharacterized CNS activity” value in test [1] (setting [2]) is “++ (5% ≤ ++ <25%)”.

As to `CNC[C@H]1OCCCc2c(-c3ccncn3)cccc21` (single isomer, unassigned) [Compound 165, hydrochloride salt], the minimal effective dose in test [1] (i.p.) was 10 to 30 mg/kg. In test [1] (setting [2]), the “AD: ADHD” value was “+ (LOQ ≤ + <5%)”, the “AG: analgesic” value is “+ (LOQ ≤ + <5%)”, the “AX: anxiolytic” value is given as “+ (LOQ ≤ + <5%)” and the “CE: cognitive enhancer” value was “+ (LOQ ≤ + <5%)”. In test [1] (setting [2]), the “DP: anti-depressant” value is on record as “++ (5% ≤ ++ <25%)”, the “MS: mood stabilizer” value is “+ (LOQ ≤ + <5%)”, the “PS: anti-psychotic” value is given as “+ (LOQ ≤ + <5%)” and the “SD: sedative hypnotic” value was “+ (LOQ ≤ + <5%)”. Besides, the “UN: uncharacterized CNS activity” value in test [1] (setting [2]) is reported as “+ (LOQ ≤ + <5%)”.

As for `CNC[C@@H]1OCCc2cc(-c3cccnn3)ccc21` (single isomer, unassigned) [Compound 31, hydrochloride], the minimal effective dose in test [1] (i.p.) is more than 30 mg/kg. In test [1] (setting [2]), the “AD: ADHD” value was “+ (LOQ ≤ + <5%)”, the “AG: analgesic” value is listed as “+ (LOQ ≤ + <5%)”, the “AX: anxiolytic” value is “++ (5% ≤ ++ <25%)” and the “CE: cognitive enhancer” value is recorded as “+ (LOQ ≤ + <5%)”. Moreover, in test [1] (setting [2]), the “DP: anti-depressant” value is “++ (5% ≤ ++ <25%)”, the “MS: mood stabilizer” value is “+ (LOQ ≤ + <5%)”, the “PS: anti-psychotic” value is “+ (LOQ ≤ + <5%)” and the “SD: sedative hypnotic” value was “+ (LOQ ≤ + <5%)”. Besides, the “UN: uncharacterized CNS activity” value in test [1] (setting [2]) was “+ (LOQ ≤ + <5%)”.
